How the values were obtained:
[1] = biological target: T1, human TRPV1 heterologously expressed in Chinese hamster ovary (CHO) cells (Homo sapiens, UniProt Q8NER1); type: cell-based; details: for fold weaker antagonistic potency compared to 1: ratio of Ki(ant) versus compound 1
[2] = biological target: T1, human TRPV1 heterologously expressed in Chinese hamster ovary (CHO) cells; experiment: binding competition assay with [3H]-resiniferatoxin; details: for fold weaker binding affinity compared to 1: ratio of Ki versus compound 1

T1 sequence (Q8NER1 whole entry): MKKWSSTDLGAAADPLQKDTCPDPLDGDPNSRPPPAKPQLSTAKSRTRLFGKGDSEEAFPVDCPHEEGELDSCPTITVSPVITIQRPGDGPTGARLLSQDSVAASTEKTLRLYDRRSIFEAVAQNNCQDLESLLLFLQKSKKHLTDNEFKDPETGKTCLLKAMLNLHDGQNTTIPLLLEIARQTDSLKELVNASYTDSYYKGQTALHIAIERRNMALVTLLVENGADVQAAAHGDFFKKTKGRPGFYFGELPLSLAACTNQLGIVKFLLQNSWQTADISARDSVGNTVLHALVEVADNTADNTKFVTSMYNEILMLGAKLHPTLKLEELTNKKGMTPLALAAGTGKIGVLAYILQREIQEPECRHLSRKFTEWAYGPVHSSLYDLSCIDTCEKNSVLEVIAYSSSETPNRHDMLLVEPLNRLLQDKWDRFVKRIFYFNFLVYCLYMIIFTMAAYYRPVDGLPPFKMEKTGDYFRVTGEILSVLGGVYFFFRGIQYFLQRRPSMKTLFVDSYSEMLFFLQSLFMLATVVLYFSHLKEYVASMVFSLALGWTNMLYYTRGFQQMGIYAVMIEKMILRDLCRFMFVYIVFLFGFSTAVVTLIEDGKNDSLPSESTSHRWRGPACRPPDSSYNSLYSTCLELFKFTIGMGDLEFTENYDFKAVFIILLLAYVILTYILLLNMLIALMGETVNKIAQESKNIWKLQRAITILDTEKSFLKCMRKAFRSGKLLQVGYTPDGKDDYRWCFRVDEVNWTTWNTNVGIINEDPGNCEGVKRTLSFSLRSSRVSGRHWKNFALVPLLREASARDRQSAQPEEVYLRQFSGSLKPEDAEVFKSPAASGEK

Structure (SMILES) | fold weaker antagonistic potency compared to 1 [1] | fold weaker binding affinity compared to 1 [2] | further results
CC1CCN(c2nc(C(F)(F)F)ccc2CCNC(=O)C(C)c2ccc(NS(C)(=O)=O)c(F)c2)CC1 (stereo not shown) [Compound 11] | 43 fold | 7 fold | –
CC1CCN(c2nc(C(F)(F)F)ccc2CNC(=O)C(C)c2ccc(CNS(C)(=O)=O)c(F)c2)CC1 (stereo not shown) [Compound 16] | 12 fold | 29 fold | –
CC1CCN(c2nc(C(F)(F)F)ccc2CNC(=O)Nc2ccc(NS(C)(=O)=O)c(F)c2)CC1 [Compound 21] | 67 fold | 11 fold | –
CC1CCN(c2nc(C(F)(F)F)ccc2CCNC(=O)Nc2ccc(NS(C)(=O)=O)c(F)c2)CC1 [Compound 22] | – | – | character of antagonism ([1]; capsaicin stimulated 45Ca2+ uptake): partial antagonist
CC1CCN(c2nc(C(F)(F)F)ccc2CNC(=O)Nc2ccc(CNS(C)(=O)=O)c(F)c2)CC1 [Compound 27] | – | – | fold increase in antagonistic potency compared to 21 ([1]; ratio of Ki(ant) versus compound 21): approximately 12 fold; fold increase in binding affinity compared to 21 ([2]; ratio of Ki versus compound 21): approximately 12 fold
Cc1cccc(N(C(=O)NCc2ccc(C(F)(F)F)nc2N2CCC(C)CC2)c2ccc(NS(C)(=O)=O)c(F)c2)c1 [Compound 42] | – | – | extent of antagonism, 15 min pre-incubation ([1]; cells incubated with compound 15 min before challenge with capsaicin): full antagonism

Reference: article PMC6957248 (Bioorganic & medicinal chemistry letters, 2016)
